How the values were obtained:
Tenebrio molitor L = test: Tenebrio test (topical application to pupae, morphological inhibition of adult characters); format: in vivo, Tenebrio molitor L (yellow mealworm); conditions: for ID-50 morph.: Table I, topical, acetone solution, 0.5 to 2 hours old pupae (150 mg), 27° C, 70% RH; for ID 50 morph.: Table II, compounds of the formula I, Tenebrio
Description: (§1) The biological tests are examplified by tests on the yellow mealworm, Tenebrio molitor L, Galleria mellonella L, Culex pipiens L, Aedes aegypti L and Drosophila melanogaster L.
Tenebrio test: The material in question is applied topically to the abdomen of 0.5 to 2 hours old pupae of the said species, as a solution in acetone. The pupae are held at 27° C and 70% RH, ecdysis occuring 5 to 7 days later. The degree of inhibition of adult characters is referred to an arbitrary scale, where a morphologically perfect adult is given the character 0%, and a perfect second pupae 100%. In Table 1 is given the morphological inhibition dose 50% (ID 50 morph.) for some of the chemicals invented, in μg per standard pupa (150 mg). ID 50 morph. refers to specimens showing predominantly adult characters in the front part, pupal characters in the abdomen.
ID50 morph is as said above the dose causing development of individuals showing predominantly adult characters in the front part and pupal characters in the abdomen. It is known that ID50 -doses in general are 10 times greater than ED50 -doses.

Aedes aegypti L = test: Aedes test (same test as for Culex); format: in vivo; conditions: Table I, mature larvae, loss of 50% of test animals, read-out: IC-50 eclos
Description: as §1
Culex test: The compounds are tested on mature larvae. The concentration (IC-50 eclos.) is given in ppm.
Aedes test: The same test as for Culex.

Culex pipiens L = test: Culex test (mature larvae, loss of 50% of test animals); format: in vivo; conditions: Table I, read-out: IC-50 eclos.
Description: The biological tests are examplified by tests on the yellow mealworm, Tenebrio molitor L, Galleria mellonella L, Culex pipiens L, Aedes aegypti L and Drosophila melanogaster L. Culex test: The compounds are tested on mature larvae. The concentration (IC-50 eclos.) is given in ppm.

[1] = test system: Drosophila melanogaster L; test: Drosophila test (compound in agar based food, pupae which fail in ecdysis); format: in vivo; conditions: Table I, in artificial agar based food, pupae failing in ecdysis
Description: as §1
Drosophila test: One ml of acetone solution of the compound to be tested is mixed with an artificial agar based food mixture just before this solidifies. Ten less than one day old adult flies -- five of each sex -- are added, and all abnormalities observed for two generations. Juvenile hormone activity is especially noted in the pupae which fail in ecdysis. EC50 -eclos. is given in ppm.

Compound | ID-50 morph. (Tenebrio molitor L) [μg/pupa] | ID 50 morph. (Tenebrio molitor L) | IC50 (inhibition of eclosion) (Aedes aegypti L) [µg/mL] | IC50 for inhibition of adult emergence (eclosion) (Culex pipiens L) [µg/mL] | EC-50 eclos [1] [ppm]
CC(C)=CCC/C(C)=C/COc1ccc(C)nc1 [Compound 1, 3,7-dimethyl-1-(6'-methyl-3'-pyridyl-oxy)-2,6-octadiene] | 0.02 | 0,02 μg/150 mg pupa | 0.5 | 0.5 | > 100
C/C(=C\COc1ccc(C)nc1)CCC1OC1(C)C (stereo not shown) [Compound 2, 6,7-epoxy-3,7-dimethyl-1-(6'-methyl-3'-pyridyloxy)-2-octene] | 0.002 |  | 0.1 |  | 
CCOC(C)(C)CCC/C(C)=C/COc1ccc(C)nc1 [Compound 3, 7-ethoxy-3,7-dimethyl-1-(6'-methyl-3'-pyridyloxy)-2-octene] | 0.001 |  |  | < 10 | 
C/C(=C\COc1ccc(C)nc1)CCCC(C)(C)O [Compound 4, 7-hydroxy-3,7-dimethyl-1-(6'-methyl-3'-pyridyloxy)-2-octene] | 4.0 |  |  |  | 
CC(C)=CCC/C(C)=C/CNc1cccnc1 [Compound 5, N,3'-3,7-dimethyl-2,6-octadienyl-1-(3'-a-minopyridine)] | 40.0 |  |  | 10 | 
CC(C)=CCCC(C)=CCOc1cccnc1 [Compound 6, 3,7-Dimethyl-1-(3'-pyridyloxy)-2,6-octadiene] | 3.0 |  |  |  | 
CCc1ccc(OCC=C(C)CCC=C(C)C)cn1 [Compound 7, 3,7-Dimethyl-1-(6'-ethyl-3'-pyridyloxy)-2,6-octadiene] | 0.005 |  |  | 0.05 | > 100
CC(C)=CCCC(C)=CCOc1ccc(C(C)C)nc1 [Compound 8, 3,7-Dimethyl-1-(6'-isopropyl-3'-pyridyloxy)-2,6-octadiene] | 0.004 |  |  |  | 
COc1ccc(OCC=C(C)CCC=C(C)C)cn1 [Compound 9, 3,7-Dimethyl-1-(6'-methoxy-3'-pyridyloxy)-2,6-acetadiene] | 0.02 | 0,02 μg/150 mg pupa |  |  | 
CCC(C)=CCCC(=CCOc1ccc(C)nc1)CC [Compound 10, 3-Ethyl-7-methyl-1l-(6'-methyl-3'-pyridyloxy)-2,6-nonadiene] | 0.002 |  |  |  | 
CCC(C)=CCCC(=CCOc1ccc(CC)nc1)CC [Compound 11, 3-EThyl-7-methyl-1-(6'-ethyl-3'-pyridyloxy)-2,6-nonadiene] | 0.001 |  |  |  | 
CC(=CCOc1cccnc1)CCC1OC1(C)C (stereo not shown) [Compound 12, 6,7-Epoxy-3,7-dimethyl-1l-(3'-pyridyloxy)-2-ocetene] | 0.2 |  |  |  | 
CCc1ccc(OCC=C(C)CCC2OC2(C)C)cn1 (stereo not shown) [Compound 13, 6,7-Epoxy-3,7-dimethyl-1l-(6'-ethyl-3'-pyridyloxy)-2l-octene] | 0.0001 |  | 0.1 | 0.005 | > 100
CCC(=CCOc1ccc(C)nc1)CCC1OC1(C)CC (stereo not shown) [Compound 14, 6,7-Epoxu-3-ethyl-7-methyl-1-(6'-methyl-3'-pyridyloxy)-2-nonene] | 0.002 |  |  |  | 
CCC(=CCOc1ccc(CC)nc1)CCC1OC1(C)CC (stereo not shown) [Compound 15, 6,7 Epoxy-3-ethyl-7-methyl-1-(6'-ethyl-3'-pyridyloxy)-2l-nonene] | 0.0001 |  |  |  | 
CCOC(C)(C)CCCC(C)=CCOc1cccnc1 [Compound 16, 7-Ethoxy-3,7-dimethyl-1-(3'-pyridyloxy)-2-octene] | 0.009 |  |  |  | 
COc1ccc(NCC=C(C)CCC=C(C)C)cn1 [Compound 17, N, 3'-3,7-Dimethyl-2,6-octadienlyl-(6'methoxy-3'-aminopyridin)] | 0.4 |  |  |  | 
CCC(C)=CCCC(=CCOc1cccnc1)CC [Compound 18, 3-Ethyl-7-methyl-1-(3'-pyridyloxy)-2,6-nonadiene] | 0.2 |  |  |  | 
CCC(=CCOc1cccnc1)CCC1OC1(C)CC (stereo not shown) [Compound 19, 6,7-Epoxy-3-ethyl-7-methyl-1-(3'-pyridyloxy)-2-nonene] | 0.02 |  |  |  | 

Compound | ID-50 morph. (Tenebrio molitor L) [μg/pupa] | ID 50 morph. (Tenebrio molitor L) | IC50 (inhibition of eclosion) (Aedes aegypti L) [µg/mL] | IC50 for inhibition of adult emergence (eclosion) (Culex pipiens L) [µg/mL] | EC-50 eclos [1] [ppm]
COC(C)(C)CCCC(C)=CCOc1cccnc1 [Compound 20, 7-Methoxy-3,7-dimethyl-1l-(3'-pyridyloxy)-2-ocetene] | 1.0 |  |  |  | 
COC(C)(C)CCCC(C)=CCOc1ccc(C)nc1 [Compound 21, 7-Metoxy-3,7-dimethyl-1-(6'-methyl-3'-pyridyloxy)-2-octene] | 1.0 |  | 1 | < 10 | 
CCOC(C)(CC)CCCC(=CCOc1cccnc1)CC (stereo not shown) [Compound 22, 7-Ethoxy-3-ethyl-7-methyl-1-(3'-pyridyloxy)-2-nonene] | 0.01 |  |  |  | 
CCOC(C)(CC)CCCC(=CCOc1ccc(C)nc1)CC (stereo not shown) [Compound 23, 7-Ethoxy-3-ethyl-7-methyl-1l-(6'-methyl-3'-pyridyloxy)-2-nonene] | 0.001 |  |  | 0.5 | 
CC(C)=CCCC(C)=CCOc1ccc(C)nc1[N+](=O)[O-] [Compound 24, 3,7-Dimethyl-1l-(2'-nitro-6'-methyl-3'-pyridyloxy)-2,6-octadiene] | 75. |  |  | > 10 | 
CC(C)=CCCC(C)=CCOc1cccnc1CO [Compound 25, 3,7-Dimethyl-1-(2'-hydroxymethyl-3'-pyridyloxy)-2,6-octadiene] | 10. |  |  |  | 
CC(C)=CCCC(C)=CCOc1cccnc1C [Compound 26, 3,7 Dimethyl-1-(2'-methyl-3'-pyridyloxy)-2,6-octadiene] | 10. |  |  |  | 
CCOC(C)(C)CCCC(C)=CCOc1ccc(CC)nc1 [Compound 27, 7-Ethoxy-3,7-dimethyl-1-(6'-ethyl-3'-pyridyloxy)-2-octene] | 0.0001 |  |  | < 1 | > 100
CCc1ccc(OCC=C(C)CCCC(C)(C)OC)cn1 [Compound 28, 7-Methoxy-3,7-dimethyl-1-(6'-ethyl-3'-pyridyloxy)-2-octene] | 0.001 |  |  |  | 
CCC(C)=CCCC(C)=CCOc1ccc(CC)nc1 [Compound 29, 3,7-Dimethyl-1-(6'-ethyl-3'-pyridyloxy)-2,6-nonadiene] | 0.02 |  |  |  | > 100
CCc1ccc(OCC=C(C)CCC2OC2(C)CC)cn1 (stereo not shown) [Compound 30, 6,7-Epoxy-3,7-dimethyl-1l-(6'-ethyl-3'-pyridyloxy)-2l-nonene] | 0.0003 |  | 0.5 | < 10 | > 100
CC(C)=CCCC(C)=CCOc1ccc(C)nc1CO [Compound 31, 3,7-Dimethyl-1-(2'-hydroxymethyl-6'-methyl-3'pyridyloxy)-2,6-octadiene] | 10 |  |  | > 10 | 
CC(C)=CCCC(C)CCOc1cccnc1 (stereo not shown) [Compound 32, 3,7-Dimethyl-1-(3'-pyridyloxy)-6-octene] | 5. |  |  | 0.2 | 
CC(C)=CCCC(C)CCOc1ccc(C)nc1 (stereo not shown) [Compound 34, 3,7-dimethyl-1-(6'-methyl-3'-pyridyloxy)-6-octene] | 0.4 |  |  | 0.5 | 
Cc1ccc(OCCC(C)CCC2OC2(C)C)cn1 (stereo not shown) [Compound 35, 6,7-epoxy-3,7-dimethyl-1-(6'-methyl-3'pyridyloxy)-octane] | 0.05 |  |  |  | 
CCOC(C)(C)CCCC(C)CCOc1ccc(C)nc1 (stereo not shown) [Compound 36, 7-Ethoxy-3,7-dimethyl-1-(6'-methyl-3'-pyridyloxy)-octane] | 0.05 |  |  |  | > 100
CCc1ccc(OCCC(C)CCC=C(C)C)cn1 (stereo not shown) [Compound 37, 3,7-dimethyl-1-(6'-ethyl-3'-pyridyloxy)-6-octene] | 0.2 |  |  |  | > 100
CCc1ccc(OCCC(C)CCC2OC2(C)C)cn1 (stereo not shown) [Compound 38, 6,7-Epoxu-3,7-dimethyl-1l-(6'-ethyl-3'-pyridyloxy)-octane] | 0.005 |  | < 1 | < 10 | > 100
CCc1ccc(OCCC(C)CCCC(C)(C)OC)cn1 (stereo not shown) [Compound 40, 7-Methoxy-3,7-dimethyl-1l-(6'-ethyl-3'-pyridyloxy)-octane] | 0.02 |  |  |  | > 100

From patent US4061757A, “Compounds having juvenile hormone activity” (A/S Cheminova, priority 1971, dated 1977)
